From patent US4442098A, “Pentacyclic derivatives of piperazine” (Beecham Group Limited, priority 1980, dated 1984)
Where two headings read alike, the source gives them in different places.

System: central 5HT
Assay: inhibition of behavioural symptoms (forepaw tapping, head jerks, splayed limbs) induced by 5-methoxy-N,N-dimethyltryptamine in mice
Assay type: in vivo, mice (male CD-1 Charles Rine)
Settings: 1 h pretreatment, 10 mg/kg ip 5-methoxy-N,N-dimethyltryptamine; for ED50: Mus musculus, 1 h, read-out: ED50 (dose of compound inhibiting the symptoms by 50%)
Procedure: Mice (.male. CD^-1 Charles Rine) are pretreated with the compounds 10 animals/group under investigation and 1 h later one group is injected with 10 mg/kg ip 5-methoxy-N,N-dimethyltryptamine (Sigma). The symptoms of forepaw tapping movements, head jerks and splayed limbs are scored: 1, present; 0, absent, giving a maximum score of 3/mouse or 30/group. Results are expressed as the percentage inhibition compared to the group treated with 5-methoxy-N,N-dimethyl tryptamine alone. The dose of compound inhibiting the symptoms by 50% is determined graphically.

SMILES: CN1CC2CC(O)c3cccc4c3N2C(C1)c1ccccc1C4 (single isomer, unassigned) [Compound 3, 1,2,3,3a,4,5,9,13b-Octahydro-2-methyl-2-benzazepino[4,3,2-ij]pyrazino[1,2-a]quinolin-5-ol]
- ED50 (po, p.o.): 0.65 mg/kg

SMILES: CN1CC2CC(O)c3cccc4c3N2C(C1)c1ccccc1C4 (single isomer, unassigned) [Compound 4, 1,2,3,3a,4,5,9,13b-Octahydro-2-methyl-2-benzazepino[4,3,2-ij]pyrazino[1,2-a]quinolin-5-ol]
- ED50 (ip, i.p.): 0.3 mg/kg

SMILES: CN1CC2CC(=O)c3cccc4c3N2C(C1)c1ccccc1C4 (stereo not shown) [Compound 1, 1,2,3,3a,4,5,9,13b-Octahydro-2-methyl-2-benzazepino[4,3,2-ij]pyrazino[1,2-a]quinolin-5-one]
- ED50 (po, p.o.): 12 mg/kg

SMILES: CN1CC2CCc3cccc4c3N2C(C1)c1ccccc1C4 (stereo not shown) [Compound 6, 1,2,3,3a,4,5,9,13b Octahydro-2-methyl-2-benzazepino[4,3,2-ij]pyrazino[1,2-a]quinoline]
- ED50 (po, p.o.): 10 mg/kg

SMILES: CN1CC2CCc3cccc4c3N2C(C1)c1ccccc1C4 (stereo not shown) [Compound 7, 1,2,3,3a,4,5,9,13b-octahydro-2-methyl-2-benzazepino[4,3,2-ij]pyrazino[1,2-a]quinoline]
- ED50 (dose of compound inhibiting the symptoms by 50%) (p.o., 60 min): 13 mg/kg

SMILES: CN1CC2CC(=NO)c3cccc4c3N2C(C1)c1ccccc1C4 (stereo not shown) [Compound 8, 1,2,3,3a,4,5,9,13b-octahydro-2-methyl-2-benzazepino[4,3,2-ij]-pyrazino[1,2-a]-5-oxaminoquinoline]
- ED50 (po, p.o.): 3 mg/kg

SMILES: CN1CC2CC(=O)c3cccc4c3N2C(C1)c1ccccc1O4 (stereo not shown) [Compound 16, 2-methyl,1,3,4,14b-tetrahydro 4,6-ethano-2H-dibenzo[bf]pyrazino[1,2-d][1,4]oxazepin-15-one]
- ED50 (po, p.o.): 10 mg/kg
